Some results are limits rather than exact numbers.

For assay [1], the target named is T1, human S1P1 (EDG-1) (Homo sapiens, UniProt P21453). Briefly: Inhibition of binding of [33P]-S1P to S1P1, CHO membrane fractions. To be noted: [33P]-S1P binding, membrane fractions of CHO cells overexpressing human S1P1. The method, then:
(§1) Measurement of the Inhibitory Action of the Compound of the Present Invention on Binding of [^33P]-S1P to S1P5 (EDG-8)
(§2) A reaction was carried out in a 96-well microplate by using membrane fractions of Chinese hamster ovary (CHO) cells each of which was made to overexpress human S1P1 (EDG-1) or human S1P5 gene respectively, in an amount of the membrane fraction of 1 mg protein/mL. To each of the wells, 100 μL of a vehicle (DMSO) solution or a ligand solution at a two-fold concentration diluted with Binding Buffer (50 mmol/L, Tris pH 7.5, 5 mmol/L, MgCl2, 0.5% BSA and Complete EDTA free (1 tablet/50 mL)) and […] of 0.16 nmol/L [^33P]-S1P (manufactured by American Radiolabeled Chemicals, Inc.) diluted with Binding Buffer were added, and thereafter, each of membrane fraction solutions (50 μL) was added and the reaction was carried out at room temperature for 60 minutes. After the reaction, suction filtration was carried out by using a 96-well UNIFILTER, and the 96-well microplate was washed with Wash Buffer (50 mmol/L, Tris pH 7.5, 0.5% BSA) (150 mL), and thereafter, was dried at 60° C. for 45 minutes. MicroScint (trade name) 20 (50 μL/well) was added and the plate was covered with TopSeal-A, and thereafter, the radioactivity was measured by using TopCount (manufactured by PerkinElmer Inc.).

Assay [2] addresses T2, human S1P5 (EDG-8) (Homo sapiens, UniProt Q9H228). As to the kind of experiment: Inhibition of binding of [33P]-S1P to S1P5, CHO membrane fractions. To be noted: for IC50: [33P]-S1P binding, membrane fractions of CHO cells overexpressing human S1P5. The procedure:
as §1, §2

The target of assay [3] is T1, human S1P1 (EDG-1). Briefly: S1P receptor agonist activity by monitoring intracellular cyclic AMP, CHO cells overexpressing S1P1. The assay is classed as cell-based. The following applies: forskolin-stimulated CHO cells overexpressing human S1P1, read-out: EC 50 value with regard to S1P1 receptor. The procedure: (§3) Evaluation of S1P Receptor Agonist Activities of the Compound of the Present Invention by Monitoring the Concentration of Produced Intracellular Cyclic AMP
(§4) CHO cells which were made to overexpress either human S1P1 (EDG-1) or human S1P5 (EDG-8) gene respectively were cultured in Ham's F12 Medium (manufactured by Gibco-BRL) containing 10% FBS (fetal bovine serum), penicillin/streptomycin and geneticin (0.25 mg/mL). The medium was removed from the cultured cells, the cultured cells were washed once with phosphate-buffered saline, and the cultured cells were treated with a vehicle (DMSO) solution or a compound solution each of which was diluted with Buffer (Hanks' balanced salt solution containing 20 mmol/L HEPES, 0.1 or 0.2% BSA, 1 mmol/L IBMX and 50 μmol/L forskolin) at 37° C. for 30 minutes. Thereafter, the cultured cells were washed once with phosphate-buffered saline. After lysing the cells, the concentration of cyclic AMP in the cell lysate were measured by using cAMP Assay Kit (GE Healthcare).

Assay [4] concerns the target T2, human S1P5 (EDG-8). Briefly: S1P receptor agonist activity by monitoring intracellular cyclic AMP, CHO cells overexpressing S1P5. The assay is classed as cell-based. The following applies: forskolin-stimulated CHO cells overexpressing human S1P5, read-out: EC 50 value with regard to S1P5 receptor. The procedure:
as §3, §4

T1 sequence (P21453 whole entry): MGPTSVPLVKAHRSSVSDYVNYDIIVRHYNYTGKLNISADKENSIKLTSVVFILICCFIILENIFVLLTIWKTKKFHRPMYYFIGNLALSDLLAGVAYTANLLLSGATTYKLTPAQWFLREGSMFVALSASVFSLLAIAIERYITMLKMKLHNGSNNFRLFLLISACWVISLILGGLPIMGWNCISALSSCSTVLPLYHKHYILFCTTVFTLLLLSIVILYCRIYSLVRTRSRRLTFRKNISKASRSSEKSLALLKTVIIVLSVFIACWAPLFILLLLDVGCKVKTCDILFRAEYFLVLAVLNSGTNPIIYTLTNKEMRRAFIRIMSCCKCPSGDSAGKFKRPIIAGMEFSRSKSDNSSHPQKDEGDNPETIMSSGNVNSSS
T2 sequence (Q9H228 whole entry): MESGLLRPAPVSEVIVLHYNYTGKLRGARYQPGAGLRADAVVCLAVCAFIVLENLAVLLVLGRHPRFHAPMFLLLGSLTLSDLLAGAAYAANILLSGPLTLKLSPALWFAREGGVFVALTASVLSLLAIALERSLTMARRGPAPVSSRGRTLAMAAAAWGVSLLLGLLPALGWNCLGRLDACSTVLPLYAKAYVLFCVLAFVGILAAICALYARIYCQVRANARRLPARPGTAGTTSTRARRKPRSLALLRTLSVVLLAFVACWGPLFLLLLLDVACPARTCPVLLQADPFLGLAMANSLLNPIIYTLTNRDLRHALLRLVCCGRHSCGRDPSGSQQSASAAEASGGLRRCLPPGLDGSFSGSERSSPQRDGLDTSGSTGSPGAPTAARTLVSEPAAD

As usually defined, the IC50 is the concentration that gives 50% inhibition. Higher therefore signals weaker potency in that assay. With `CC1=C(CN2CC(C(=O)O)C2)CCc2cc(-c3ccccn3)ccc21` [Example 14 (3), 1-{[1-Methyl-6-(2-pyridinyl)-3,4-dihydro-2-naphthalenyl]methyl}-3-azetidinecarboxylic acid], the IC50 at human S1P1 (EDG-1) [1] is greater than 10000 nM; at human S1P5 (EDG-8) [2] it was 67.2 nM.
Consider `CCCCc1ccc(Oc2ccc3c(c2)CCC(CN2CC(C(=O)O)C2)=C3C)cc1.Cl` [Comparative Compound A, 1-{[6-(4-butylphenoxy)-1-methyl-3,4-dihydronaphthalen-2-yl]methyl}azetidine-3-carboxylic acid hydrochloride, reference compound], for which the IC50 at human S1P1 (EDG-1) [1] was found to be 475 nM; on human S1P5 (EDG-8) [2] it was 76 nM. Moreover, the “balance of an S1P5 receptor agonist activity against an S1P1 receptor agonist activity” value on human S1P5 (EDG-8) [2] (conclusion in words from binding IC50 values S1P1 vs S1P5) is “had both S1P1 and S1P5 receptor agonist activities”.
For `O=C(O)C1CN(CC2=Cc3ccc(OC4CCCCC4)cc3CC2)C1` [Example 9 (2), 1-{[6-(Cyclohexyloxy)-3,4-dihydro-2-naphthalenyl]methyl}-3-azetidinecarboxylic acid], the 50% inhibitory concentration (IC50) at human S1P1 (EDG-1) [1] was greater than 10000 nM; on human S1P5 (EDG-8) [2], 57.2 nM.
On to `CC1=C(CN2CC(C(=O)O)C2)CCc2cc(-c3ccccc3)ccc21` [Example 14 (1), 1-[(1-Methyl-6-phenyl-3,4-dihydro-2-naphthalenyl)methyl]-3-azetidinecarboxylic acid], for which the IC50 is greater than 10000 nM on human S1P1 (EDG-1) [1] and 22.4 nM at human S1P5 (EDG-8) [2].
Regarding `CC1Cc2cc(OC3CCCCC3)ccc2C=C1CN1CC(C(=O)O)C1` (stereo not shown) [Example 21, 1-{[6-(Cyclohexyloxy)-3-methyl-3,4-dihydro-2-naphthalenyl]methyl}-3-azetidinecarboxylic acid], the IC50 at human S1P1 (EDG-1) [1] was greater than 10000 nM; at human S1P5 (EDG-8) [2], 16 nM. The EC50 at human S1P1 (EDG-1) [3] amounted to 9990 nM; at human S1P5 (EDG-8) [4], 0.2 nM.

The record behind these values is patent publication US11471436B2, “Dihydronaphthalene derivative” (ONO PHARMACEUTICAL CO., LTD., priority 2014, dated 2022).
